Measurements published in PubChem BioAssay AID1963437 (Molecular Pharmacology Branch, DTP, NCI, 2024).
pIC50: −log10 of the molar value. Values joined by “and” are separate entries in the source; they are usually repeats but may differ in a detail not shown here. Equal values may be shown once. Values belong to the molecule of their own block, whether it stands above or below them.

System: OVCAR-8 complex spheroid, growth inhibition
Assay: Anticancer human tumor OVCAR-8 cell line growth inhibition [Asc];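 note: spheroids exposed to agents for 7 days before readout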;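 for viability, T/C: percent viability relative to DMSO vehicle wells taken as 100%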
Conditions: for viability, T/C: stronger effect = lower value
Method in brief: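 Complex spheroids combining tumor cells with HUVEC endothelial cells and human MSCs, at 37 degrees C, 5% CO2; agents tested alone or combined, half-log dilutions from at or near clinical Cmax, or 10 microM if Cmax unknown.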

[1] = curve of first compound, second compound 0.0316 µM
[2] = curve of first compound, second compound 0.1 µM
[3] = curve of first compound, second compound 0.316 µM
[4] = curve of first compound, second compound 1 µM
[5] = curve of first compound, second compound 3.16 µM
[6] = curve of first compound, second compound 10 µM
[7] = second compound 0.0316 µM, first compound 0.0316 µM
[8] = second compound 0.0316 µM, first compound 0.1 µM
[9] = second compound 0.0316 µM, first compound 0.316 µM
[10] = second compound 0.0316 µM, first compound 1 µM
[11] = second compound 0.0316 µM, first compound 3.16 µM
[12] = second compound 0.0316 µM, first compound 10 µM
[13] = second compound 0.1 µM, first compound 0.0316 µM
[14] = second compound 0.1 µM, first compound 0.1 µM
[15] = second compound 0.1 µM, first compound 0.316 µM
[16] = second compound 0.1 µM, first compound 1 µM
[17] = second compound 0.1 µM, first compound 3.16 µM
[18] = second compound 0.1 µM, first compound 10 µM
[19] = second compound 0.316 µM, first compound 0.0316 µM
[20] = second compound 0.316 µM, first compound 0.1 µM
[21] = second compound 0.316 µM, first compound 0.316 µM
[22] = second compound 0.316 µM, first compound 1 µM
[23] = second compound 0.316 µM, first compound 3.16 µM
[24] = second compound 0.316 µM, first compound 10 µM
[25] = second compound 1 µM, first compound 0.0316 µM
[26] = second compound 1 µM, first compound 0.1 µM
[27] = second compound 1 µM, first compound 0.316 µM
[28] = second compound 1 µM, first compound 1 µM
[29] = second compound 1 µM, first compound 3.16 µM
[30] = second compound 1 µM, first compound 10 µM
[31] = second compound 3.16 µM, first compound 0.0316 µM
[32] = second compound 3.16 µM, first compound 0.1 µM
[33] = second compound 3.16 µM, first compound 0.316 µM
[34] = second compound 3.16 µM, first compound 1 µM
[35] = second compound 3.16 µM, first compound 3.16 µM
[36] = second compound 3.16 µM, first compound 10 µM
[37] = second compound 10 µM, first compound 0.0316 µM
[38] = second compound 10 µM, first compound 0.1 µM
[39] = second compound 10 µM, first compound 0.316 µM
[40] = second compound 10 µM, first compound 1 µM
[41] = second compound 10 µM, first compound 3.16 µM
[42] = second compound 10 µM, first compound 10 µM

Structure (SMILES): C#Cc1c(F)ccc2cc(O)cc(-c3ncc4c(N5CC6CCC(C5)N6)nc(OCC56CCCN5CC(F)C6)nc4c3F)c12 (configuration not stated) + Cc1c(S(C)(=O)=O)c(-c2cc(F)cc(N3CCN(c4ccc(NS(=O)(=O)c5ccc(NC(CCN6CCC(C(=O)OCCCP(=O)(O)O)CC6)CSc6ccccc6)c(S(=O)(=O)C(F)(F)F)c5)cc4)CC3)c2)c(-c2ccc(Cl)cc2)n1C(C)C
pIC50 [1]: < 5.00
pIC50 [2]: < 5.00
pIC50 [3]: < 5.00
pIC50 [4]: < 5.00
pIC50 [5]: < 5.00
pIC50 [6]: < 5.00
viability, T/C [7]: 86.8%
viability, T/C [8]: 97.1%
viability, T/C [9]: 87.3%
viability, T/C [10]: 76.6%
viability, T/C [11]: 84.9%
viability, T/C [12]: 99.8%
viability, T/C [13]: 85.2%
viability, T/C [14]: 72.8%
viability, T/C [15]: 90.1%
viability, T/C [16]: 85.5%
viability, T/C [17]: 90.4%
viability, T/C [18]: 84.7%
viability, T/C [19]: 78.2%
viability, T/C [20]: 102%
viability, T/C [21]: 95.4%
viability, T/C [22]: 105%
viability, T/C [23]: 94%
viability, T/C [24]: 107%
viability, T/C [25]: 95.1%
viability, T/C [26]: 79%
viability, T/C [27]: 84.6%
viability, T/C [28]: 111%
viability, T/C [29]: 106%
viability, T/C [30]: 116%
viability, T/C [31]: 85.1%
viability, T/C [32]: 83.2%
viability, T/C [33]: 89.8%
viability, T/C [34]: 92.4%
viability, T/C [35]: 102%
viability, T/C [36]: 108%
viability, T/C [37]: 91.5%
viability, T/C [38]: 92.2%
viability, T/C [39]: 81.1%
viability, T/C [40]: 113%
viability, T/C [41]: 94.2%
viability, T/C [42]: 122%

Structure (SMILES): NC(=O)C(=Cn1cnc(-c2cc(C(F)(F)F)cc(C(F)(F)F)c2)n1)c1cncnc1
viability, T/C (compound 0.000949 µM): 100% and 101% and 69.2%
viability, T/C (compound 0.003 µM): 90% and 81.8% and 98.6%
viability, T/C (compound 0.00949 µM): 99.8% and 91.2% and 111%
viability, T/C (compound 0.03 µM): 95.4% and 109% and 92.8%
pIC50 (curve of compound): < 6.52 and 7.27

Structure (SMILES): O=C(c1ccc(F)c(F)c1Nc1ccc(I)cc1F)N1CC(O)([C@@H]2CCCCN2)C1
viability, T/C (compound 0.00316 µM): 95.4% and 98.1% and 96.1%
viability, T/C (compound 0.01 µM): 122% and 101% and 111%
viability, T/C (compound 0.0316 µM): 138% and 165% and 133%
viability, T/C (compound 0.1 µM): 153% and 165% and 190%
viability, T/C (compound 0.316 µM): 210% and 216% and 228%
viability, T/C (compound 1 µM): 107% and 80.8% and 86.8%
pIC50 (curve of compound): < 6.00

Continued, in another order:

pIC50 (curve of first compound, second compound 0.00316 µM): > 7.50
pIC50 (curve of first compound, second compound 0.01 µM): < 5.00
pIC50 [1]: < 5.00
pIC50 [2]: < 5.00
pIC50 [3]: 5.00
pIC50 [4]: 5.16
Structure (SMILES): O=C(c1cc(Cc2n[nH]c(=O)c3ccccc23)ccc1F)N1CCN(C(=O)C2CC2)CC1 + CNC(C)C(=O)NC1CN(S(=O)(=O)c2cccc(S(=O)(=O)N3CCC4CCC(C(=O)NC(c5ccccc5)c5ccccc5)N4C(=O)C(NC(=O)C(C)NC)C3)c2)CCC2CCC(C(=O)NC(c3ccccc3)c3ccccc3)N2C1=O
viability, T/C (second compound 0.00316 µM, first compound 0.0316 µM): 0.81%
viability, T/C (second compound 0.00316 µM, first compound 0.1 µM): 1.08%
viability, T/C (second compound 0.00316 µM, first compound 0.316 µM): 0.69%
viability, T/C (second compound 0.00316 µM, first compound 1 µM): 1.07%
viability, T/C (second compound 0.00316 µM, first compound 3.16 µM): 1.9%
viability, T/C (second compound 0.00316 µM, first compound 10 µM): 0.51%
viability, T/C (second compound 0.01 µM, first compound 0.0316 µM): 111%
viability, T/C (second compound 0.01 µM, first compound 0.1 µM): 102%
viability, T/C (second compound 0.01 µM, first compound 0.316 µM): 101%
viability, T/C (second compound 0.01 µM, first compound 1 µM): 110%
viability, T/C (second compound 0.01 µM, first compound 3.16 µM): 112%
viability, T/C (second compound 0.01 µM, first compound 10 µM): 79.2%
viability, T/C [7]: 94%
viability, T/C [8]: 99.3%
viability, T/C [9]: 101%
viability, T/C [10]: 94.7%
viability, T/C [11]: 103%
viability, T/C [12]: 87%
viability, T/C [13]: 80.3%
viability, T/C [14]: 86.4%
viability, T/C [15]: 88.6%
viability, T/C [16]: 101%
viability, T/C [17]: 83.9%
viability, T/C [18]: 79.1%
viability, T/C [19]: 83.7%
viability, T/C [20]: 100%
viability, T/C [21]: 90.4%
viability, T/C [22]: 82.4%
viability, T/C [23]: 90.9%
viability, T/C [24]: 49.7%
viability, T/C [25]: 79.2%
viability, T/C [26]: 90.7%
viability, T/C [27]: 99.5%
viability, T/C [28]: 90.3%
viability, T/C [29]: 92.5%
viability, T/C [30]: 29.8%

pIC50 (curve of compound): 5.66 and 5.59
Structure (SMILES): C=C(F)C(=O)N1CCN(c2nc(OCC3CCCN3C)nc3c2CCN(c2cccc4cccc(Cl)c24)C3)CC1CC#N (configuration not stated)
viability, T/C (compound 0.0316 µM): 107% (2×) and 96.3%
viability, T/C (compound 0.1 µM): 113% and 98.5% and 93.6%
viability, T/C (compound 0.316 µM): 109% and 84.2% and 106%
viability, T/C (compound 1 µM): 101% and 105% and 104%
viability, T/C (compound 3.16 µM): 25.7% and 39.4% and 37.9%
viability, T/C (compound 10 µM): 0.33% and 0.7% and 1.79%

pIC50 [1]: < 5.00
pIC50 [2]: < 5.00
pIC50 [3]: < 5.00
pIC50 [4]: < 5.00
pIC50 [5]: < 5.00
pIC50 [6]: < 5.00
Structure (SMILES): C=CC(=O)N1CCN(c2nc(=O)n(-c3c(C)ccnc3C(C)C)c3nc(-c4c(O)cccc4F)c(F)cc23)C(C)C1 (configuration not stated) + Cc1c(S(C)(=O)=O)c(-c2cc(F)cc(N3CCN(c4ccc(NS(=O)(=O)c5ccc(NC(CCN6CCC(C(=O)OCCCP(=O)(O)O)CC6)CSc6ccccc6)c(S(=O)(=O)C(F)(F)F)c5)cc4)CC3)c2)c(-c2ccc(Cl)cc2)n1C(C)C
viability, T/C [7]: 109%
viability, T/C [8]: 113%
viability, T/C [9]: 93.3%
viability, T/C [10]: 95%
viability, T/C [11]: 106%
viability, T/C [12]: 122%
viability, T/C [13]: 101%
viability, T/C [14]: 96.2%
viability, T/C [15]: 94.5%
viability, T/C [16]: 104%
viability, T/C [17]: 93.3%
viability, T/C [18]: 118%
viability, T/C [19]: 97.5%
viability, T/C [20]: 92.3%
viability, T/C [21]: 106%
viability, T/C [22]: 93.6%
viability, T/C [23]: 99%
viability, T/C [24]: 123%
viability, T/C [25]: 104%
viability, T/C [26]: 112%
viability, T/C [27]: 114%
viability, T/C [28]: 92.9%
viability, T/C [29]: 92.8%
viability, T/C [30]: 109%
viability, T/C [31]: 102%
viability, T/C [32]: 98.3%
viability, T/C [33]: 89.7%
viability, T/C [34]: 104%
viability, T/C [35]: 93.7%
viability, T/C [36]: 105%
viability, T/C [37]: 101%
viability, T/C [38]: 91.5%
viability, T/C [39]: 81.9%
viability, T/C [40]: 91.6%
viability, T/C [41]: 99.5%
viability, T/C [42]: 101%

pIC50 (curve of compound): < 5.00
Structure (SMILES): C#Cc1c(F)ccc2cc(O)cc(-c3ncc4c(N5CC6CCC(C5)N6)nc(OCC56CCCN5CC(F)C6)nc4c3F)c12 (configuration not stated)
viability, T/C (compound 0.0316 µM): 110% and 90.4% and 96.5%
viability, T/C (compound 0.1 µM): 95.6% and 80.1% and 97.5%
viability, T/C (compound 0.316 µM): 101% and 110% and 87%
viability, T/C (compound 1 µM): 110% and 94.2% and 95%
viability, T/C (compound 3.16 µM): 93.7% and 83.9% and 94.7%
viability, T/C (compound 10 µM): 116% and 98.9% and 85.9%
